Assay results reported in the NIST ThermoML archive (doi:10.1021/je900596d).
± gives the expanded uncertainty stated by the source.

Settings: 362.9 K, Liquid, Vibrating tube method

FC(F)=C(F)C(F)(F)F [hexafluoropropene]
mass density (5080.8 kPa): 959.79 ± 1.1 kg/m3 | mass density (5112.9 kPa): 961.66 ± 1.1 kg/m3 | mass density (5146 kPa): 963.53 ± 1.1 kg/m3 | mass density (5179.5 kPa): 965.35 ± 1.1 kg/m3 | mass density (5212.8 kPa): 967.09 ± 1.1 kg/m3 | mass density (5246.7 kPa): 968.92 ± 1.1 kg/m3 | mass density (5279.6 kPa): 970.74 ± 1.1 kg/m3 | mass density (5314.8 kPa): 972.51 ± 1.1 kg/m3 | mass density (5347.4 kPa): 974.13 ± 1.1 kg/m3 | mass density (5381.2 kPa): 975.88 ± 1.1 kg/m3 | mass density (5415.7 kPa): 977.6 ± 1.1 kg/m3 | mass density (5518.8 kPa): 982.72 ± 1.1 kg/m3 | mass density (5553.4 kPa): 984.34 ± 1.1 kg/m3 | mass density (5588.2 kPa): 985.96 ± 1.1 kg/m3 | mass density (5623.1 kPa): 987.64 ± 1.1 kg/m3 | mass density (5657.5 kPa): 989.1 ± 1.1 kg/m3 | mass density (5693.5 kPa): 990.75 ± 1.1 kg/m3 | mass density (5727.5 kPa): 992.15 ± 1.1 kg/m3 | mass density (5764.4 kPa): 993.86 ± 1.1 kg/m3 | mass density (5798.2 kPa): 995.17 ± 1.1 kg/m3 | mass density (5832.3 kPa): 996.63 ± 1.1 kg/m3 | mass density (5864.9 kPa): 997.97 ± 1.1 kg/m3 | mass density (5898.1 kPa): 999.35 ± 1.1 kg/m3 | mass density (5930.9 kPa): 1000.69 ± 1.1 kg/m3 | mass density (5965 kPa): 1002.21 ± 1.1 kg/m3 | mass density (6035.1 kPa): 1005.02 ± 1.1 kg/m3 | mass density (6069.8 kPa): 1006.31 ± 1.1 kg/m3 | mass density (6105.1 kPa): 1007.76 ± 1.1 kg/m3 | mass density (6137.3 kPa): 1008.98 ± 1.1 kg/m3 | mass density (6172 kPa): 1010.25 ± 1.1 kg/m3 | mass density (6204.9 kPa): 1011.55 ± 1.1 kg/m3 | mass density (6239.5 kPa): 1012.84 ± 1.1 kg/m3 | mass density (6274 kPa): 1014.15 ± 1.1 kg/m3 | mass density (6308.5 kPa): 1015.34 ± 1.1 kg/m3 | mass density (6343.7 kPa): 1016.69 ± 1.1 kg/m3 | mass density (6377.6 kPa): 1017.96 ± 1.1 kg/m3 | mass density (6413.1 kPa): 1019.11 ± 1.1 kg/m3 | mass density (6447.2 kPa): 1020.3 ± 1.1 kg/m3 | mass density (6480.8 kPa): 1021.47 ± 1.1 kg/m3 | mass density (6516.3 kPa): 1022.68 ± 1.1 kg/m3 | mass density (6550 kPa): 1023.83 ± 1.1 kg/m3 | mass density (6584.4 kPa): 1025.06 ± 1.1 kg/m3 | mass density (6618.1 kPa): 1026.09 ± 1.1 kg/m3 | mass density (6653.8 kPa): 1027.34 ± 1.1 kg/m3 | mass density (6686.8 kPa): 1028.37 ± 1.1 kg/m3 | mass density (6720.5 kPa): 1029.53 ± 1.1 kg/m3 | mass density (6754.6 kPa): 1030.75 ± 1.1 kg/m3 | mass density (6789.1 kPa): 1031.78 ± 1.1 kg/m3 | mass density (6824.9 kPa): 1032.91 ± 1.1 kg/m3 | mass density (6860.3 kPa): 1034.08 ± 1.1 kg/m3 | mass density (6893.3 kPa): 1035.1 ± 1.1 kg/m3 | mass density (6959.4 kPa): 1037.09 ± 1.1 kg/m3 | mass density (6993.3 kPa): 1038.11 ± 1.1 kg/m3 | mass density (7029.7 kPa): 1039.21 ± 1.1 kg/m3 | mass density (7062.9 kPa): 1040.15 ± 1.1 kg/m3 | mass density (7097.9 kPa): 1041.26 ± 1.1 kg/m3 | mass density (7134 kPa): 1042.28 ± 1.1 kg/m3 | mass density (7168.5 kPa): 1043.39 ± 1.1 kg/m3 | mass density (7202.4 kPa): 1044.3 ± 1.1 kg/m3 | mass density (7237.6 kPa): 1045.38 ± 1.1 kg/m3 | mass density (7273.1 kPa): 1046.4 ± 1.1 kg/m3 | mass density (7307.6 kPa): 1047.38 ± 1.1 kg/m3 | mass density (7378 kPa): 1049.33 ± 1.1 kg/m3 | mass density (7411.6 kPa): 1050.3 ± 1.1 kg/m3 | mass density (7482.4 kPa): 1052.26 ± 1.1 kg/m3 | mass density (7514.7 kPa): 1053.12 ± 1.1 kg/m3 | mass density (7547 kPa): 1053.95 ± 1.1 kg/m3 | mass density (7581.8 kPa): 1054.97 ± 1.1 kg/m3 | mass density (7615.4 kPa): 1055.85 ± 1.1 kg/m3 | mass density (7651.7 kPa): 1056.85 ± 1.1 kg/m3 | mass density (7689.7 kPa): 1057.93 ± 1.1 kg/m3 | mass density (7725.6 kPa): 1058.74 ± 1.1 kg/m3 | mass density (7762.3 kPa): 1059.79 ± 1.1 kg/m3 | mass density (7796.7 kPa): 1060.54 ± 1.1 kg/m3 | mass density (7833.4 kPa): 1061.54 ± 1.1 kg/m3 | mass density (7869.9 kPa): 1062.44 ± 1.1 kg/m3 | mass density (7906.3 kPa): 1063.38 ± 1.1 kg/m3 | mass density (7940.8 kPa): 1064.3 ± 1.1 kg/m3 | mass density (7976.7 kPa): 1065.12 ± 1.1 kg/m3 | mass density (8010.3 kPa): 1065.98 ± 1.1 kg/m3 | mass density (8045.2 kPa): 1066.87 ± 1.1 kg/m3 | mass density (8081.6 kPa): 1067.62 ± 1.1 kg/m3 | mass density (8115 kPa): 1068.6 ± 1.1 kg/m3 | mass density (8149.9 kPa): 1069.37 ± 1.1 kg/m3 | mass density (8185.9 kPa): 1070.21 ± 1.1 kg/m3 | mass density (8223.3 kPa): 1071.09 ± 1.1 kg/m3 | mass density (8281.3 kPa): 1072.48 ± 1.1 kg/m3 | mass density (8320.9 kPa): 1073.52 ± 1.1 kg/m3 | mass density (8358.3 kPa): 1074.27 ± 1.1 kg/m3 | mass density (8396.8 kPa): 1075.12 ± 1.1 kg/m3 | mass density (8431.8 kPa): 1075.97 ± 1.1 kg/m3 | mass density (8468.6 kPa): 1076.79 ± 1.1 kg/m3 | mass density (8505.7 kPa): 1077.66 ± 1.1 kg/m3 | mass density (8541.8 kPa): 1078.5 ± 1.1 kg/m3 | mass density (8577.3 kPa): 1079.34 ± 1.1 kg/m3 | mass density (8611.7 kPa): 1080.05 ± 1.1 kg/m3 | mass density (8649.3 kPa): 1080.92 ± 1.1 kg/m3 | mass density (8689.4 kPa): 1081.74 ± 1.1 kg/m3 | mass density (8724.6 kPa): 1082.52 ± 1.1 kg/m3 | mass density (8800.2 kPa): 1084.14 ± 1.1 kg/m3 | mass density (8834.9 kPa): 1084.87 ± 1.1 kg/m3 | mass density (8868.8 kPa): 1085.56 ± 1.1 kg/m3 | mass density (8902.9 kPa): 1086.27 ± 1.1 kg/m3 | mass density (8937.5 kPa): 1087.05 ± 1.1 kg/m3 | mass density (8971.8 kPa): 1087.76 ± 1.1 kg/m3 | mass density (9005.2 kPa): 1088.42 ± 1.1 kg/m3 | mass density (9039.7 kPa): 1089.26 ± 1.1 kg/m3 | mass density (9073.1 kPa): 1089.94 ± 1.1 kg/m3 | mass density (9106.5 kPa): 1090.69 ± 1.1 kg/m3 | mass density (9140.8 kPa): 1091.37 ± 1.1 kg/m3 | mass density (9173.4 kPa): 1092.03 ± 1.1 kg/m3 | mass density (9205.8 kPa): 1092.74 ± 1.1 kg/m3 | mass density (9239.9 kPa): 1093.42 ± 1.1 kg/m3 | mass density (9274.7 kPa): 1094.03 ± 1.1 kg/m3 | mass density (9308.6 kPa): 1094.75 ± 1.1 kg/m3 | mass density (9341.7 kPa): 1095.45 ± 1.1 kg/m3 | mass density (9377.4 kPa): 1096.15 ± 1.1 kg/m3 | mass density (9410.8 kPa): 1096.73 ± 1.1 kg/m3 | mass density (9445.5 kPa): 1097.46 ± 1.1 kg/m3 | mass density (9479.4 kPa): 1098.06 ± 1.1 kg/m3 | mass density (9548.7 kPa): 1099.5 ± 1.1 kg/m3 | mass density (9582.4 kPa): 1100.15 ± 1.1 kg/m3 | mass density (9618.6 kPa): 1100.84 ± 1.1 kg/m3 | mass density (9652.6 kPa): 1101.51 ± 1.1 kg/m3 | mass density (9687.1 kPa): 1102.18 ± 1.1 kg/m3 | mass density (9721.9 kPa): 1102.81 ± 1.1 kg/m3 | mass density (9756.1 kPa): 1103.39 ± 1.1 kg/m3 | mass density (9789.2 kPa): 1104.04 ± 1.1 kg/m3 | mass density (9822.6 kPa): 1104.65 ± 1.1 kg/m3 | mass density (9858.4 kPa): 1105.3 ± 1.1 kg/m3 | mass density (9893.4 kPa): 1106.05 ± 1.1 kg/m3 | mass density (9929.5 kPa): 1106.67 ± 1.1 kg/m3 | mass density (9963.2 kPa): 1107.25 ± 1.1 kg/m3 | mass density (9996.5 kPa): 1107.93 ± 1.1 kg/m3
